Assay results: ChEMBL document CHEMBL3102804, “Synthesis, anticancer activity and DNA-binding properties of novel 4-pyrazolyl-1,8-naphthalimide derivatives” (Bioorg Med Chem Lett, 2014)
Calls of active or inactive are those of the source. The rule behind the calls is not given here.

Experiments:
A549 [1] = assay: Cytotoxicity against human A549 cells assessed as cell viability after 48 hrs by MTT assay; type: functional, cell-based; conditions: A549, 48 h
MCF7 [2] = assay: Cytotoxicity against human MCF7 cells assessed as cell viability after 48 hrs by MTT assay; type: functional, cell-based; conditions: MCF7, 48 h
HeLa [3] = assay: Cytotoxicity against human HeLa cells assessed as cell viability after 48 hrs by MTT assay; type: functional, cell-based
A549 [4] = assay: Potency index, ratio of amonafide IC50 to compound IC50 for human A549 cells; type: functional
DNA [5] = assay: Binding affinity to calf thymus DNA by fluorescent spectra analysis; type: nucleic-acid assay; conditions: Bos taurus
HeLa [6] = assay: Potency index, ratio of amonafide IC50 to compound IC50 for human HeLa cells; type: functional
MCF7 [7] = assay: Potency index, ratio of amonafide IC50 to compound IC50 for human MCF7 cells; type: functional
DNA [8] = assay: Binding affinity to calf thymus DNA at compound to DNA ratio >= 2 by CD spectra analysis; type: nucleic-acid assay; conditions: Bos taurus
DNA [9] = assay: Binding affinity to calf thymus DNA at compound to DNA ratio 0.1 to 0.5 by CD spectra analysis; type: nucleic-acid assay; conditions: Bos taurus
DNA [10] = assay: Binding affinity to calf thymus DNA assessed as change in melting temperature at 5 uM by UV spectrophotometric analysis; type: nucleic-acid assay; conditions: Bos taurus
DNA [11] = assay: Binding affinity to calf thymus DNA assessed as melting temperature at 5 uM by UV spectrophotometric analysis (reference value: 59.7 degC); type: nucleic-acid assay; conditions: Bos taurus
DNA [12] = assay: Binding affinity to calf thymus DNA assessed as hypochromicity/bathochromic shift after 120 mins by UV-vis absorption spectra analysis; type: nucleic-acid assay; conditions: Bos taurus

SMILES	IC50 (A549 [1]) [µM]	IC50 (MCF7 [2]) [µM]	IC50 (HeLa [3]) [µM]	also measured
CN(C)CCN1C(=O)c2cccc3c(-n4cccn4)ccc(c23)C1=O	> 50	2.72	9.47	
CN(C)CCN1C(=O)c2cccc3c(-n4cc(-c5ccc(F)cc5)cn4)ccc(c23)C1=O	24	1.56	3.1	
CN(C)CCN1C(=O)c2cccc3c(-n4cc(-c5ccc(Br)cc5)cn4)ccc(c23)C1=O	> 50	10.7	3.47	
COc1cccc(-c2cnn(-c3ccc4c5c(cccc35)C(=O)N(CCN(C)C)C4=O)c2)c1	12	1.99	14.6	
COc1ccc(-c2cnn(-c3ccc4c5c(cccc35)C(=O)N(CCN(C)C)C4=O)c2)cc1	7.69	2.62	4.99	
CN(C)CCN1C(=O)c2cccc3c(-n4cc(-c5cc(C(F)(F)F)cc(C(F)(F)F)c5)cn4)ccc(c23)C1=O	25.4	3.39	16.6	
CN(C)CCN1C(=O)c2cccc3c(-n4cc(-c5ccc(Cl)cc5)cn4)ccc(c23)C1=O	17.2	4.24	10.6	
CN(C)CCN1C(=O)c2cccc3c(-n4cc(-c5ccc(C(F)(F)F)cc5)cn4)ccc(c23)C1=O	25	4.26	13.3	
Cc1ccc(-c2cnn(-c3ccc4c5c(cccc35)C(=O)N(CCN(C)C)C4=O)c2)cc1	5.09	17	4.6	Ratio IC50 (A549 [4]): 2.6
COc1ccc(-c2cnn(-c3ccc4c5c(cccc35)C(=O)N(CCN(C)C)C4=O)c2)cc1OC	11.8	0.79	3.5	
CN(C)CCN1C(=O)c2cccc3cc(N)cc(c23)C1=O [AMONAFIDE]			6.71	
COc1cc(-c2cnn(-c3ccc4c5c(cccc35)C(=O)N(CCN(C)C)C4=O)c2)cc(OC)c1OC	5.14	0.51	3.09	Kbapp (DNA [5]): 1.04 ×10⁴ /M; Ratio IC50 (HeLa [6]): 2.2; Ratio IC50 (MCF7 [7]): 3.3; Activity (DNA [8]): Active; Ratio IC50 (A549 [4]): 2.5; Activity (DNA [9]): Active; ΔTm (DNA [10]): 1.8 °C; Tm (DNA [11]): 61.5 °C; Kb (DNA [12]): 1.01 ×10⁴ /M
CN(C)CCN1C(=O)c2cccc3c(-n4cc(-c5ccccc5)cn4)ccc(c23)C1=O	8.52	1.58	6.5	
